Among the data in patent US20060287315A1, “Pyrazinedicarboxamides and their use” (Bayer HealthCare AG, priority 2004, published 2006) are IC50 values, retold here.

For orientation: pIC50 means the IC50 on a negative log10 scale, so that one unit is a factor of ten. Low values mean a large IC50, high ones a small IC50.

The assay deals with human factor Xa (FXa) (Homo sapiens, UniProt P00742). The assay is described as follows: Determination of the factor Xa inhibition (chromogenic substrate). The settings on record: human FXa 0.5 nmol/l, Pefachrome FXa substrate, 25° C., pH 8.3, extinction at 405 nm. In kind it is biochemical. The protocol:
A.1) Determination of the Factor Xa Inhibition:
The enzymatic inhibition of human factor Xa (FXa) is measured using the conversion of a chromogenic substrate specific for FXa. Factor Xa cleaves p-nitroaniline from the chromogenic substrate. The determinations are carried out in microtitre plates as follows:
The test substances, in various concentrations, are dissolved in DMSO and incubated for 10 minutes at 25° C. with human FXa (0.5 nmol/l dissolved in 50 mmol/l of Tris buffer [C,C,C-tris(hydroxymethyl)aminomethane], 150 mmol/l of NaCl, 0.1% BSA [bovine serum albumin], pH=8.3). Pure DMSO is used as control. The chromogenic substrate ([…] Pefachrome® FXa from Pentapharm) is then added. After an incubation time of 20 minutes at 25° C., the extinction at 405 nm is determined.

pIC50: −log10 of the molar value. Counter-ions that a name gives are not always drawn.

Sequence of human factor Xa (FXa) (P00742 235-488 limits assumed): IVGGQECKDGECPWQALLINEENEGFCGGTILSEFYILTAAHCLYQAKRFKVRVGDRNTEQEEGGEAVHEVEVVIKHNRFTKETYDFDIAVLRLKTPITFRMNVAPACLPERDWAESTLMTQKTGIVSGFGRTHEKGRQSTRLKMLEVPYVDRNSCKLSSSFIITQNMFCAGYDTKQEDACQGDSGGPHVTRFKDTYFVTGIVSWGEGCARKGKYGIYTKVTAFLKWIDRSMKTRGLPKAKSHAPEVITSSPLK
Sequence of human factor Xa (FXa) (P00742 41-179 partner limits assumed): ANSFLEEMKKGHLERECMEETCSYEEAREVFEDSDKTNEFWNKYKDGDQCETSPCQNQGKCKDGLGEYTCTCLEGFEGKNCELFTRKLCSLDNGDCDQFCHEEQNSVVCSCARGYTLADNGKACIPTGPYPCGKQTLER

As to `O=C(Nc1ccc(Cl)cn1)c1nccnc1C(=O)Nc1ccc(N2CCCC(O)C2=O)cc1F` (centres unmarked) [Example 9, N-(5-Chloropyridin-2-yl)-N′-[2-fluor-4-(3-hydroxy-2-oxopiperidin-1-yl)phenyl]pyrazine-2,3-di-carboxamide], the pIC50 was 8.36.

`O=C(Nc1ccc(Cl)cc1)c1nccnc1C(=O)Nc1ccc(N2CCOCC2=O)cc1` [Example 11, N-(4-Chlorophenyl)-N′-[4-(3-oxomorpholin-4-yl)phenyl]pyrazine-2,3-dicarboxamide]: the negative logarithm of the IC50 (pIC50) was 9.31.

Regarding `O=C(Nc1ccc(N2CCOCC2=O)cc1)c1nccnc1C(=O)Nc1ccc(Cl)cn1` [Example 12, N-(5-Chloropyridin-2-yl)-N′[4-(3-oxomorpholin-4-yl)phenyl]pyrazine-2,3-dicarboxamide], the pIC50 was 9.80.

As for `O=C(Nc1ccc(F)cc1)c1nccnc1C(=O)Nc1ccc(N2CCOCC2=O)cc1` [Example 17, N-(4-Fluorophenyl)-N′[4-(3-oxomorpholin-4-yl)phenyl]pyrazine-2,3-dicarboxamide], the pIC50 is 7.80.

`Cc1ccc(NC(=O)c2nccnc2C(=O)Nc2ccc(N3CCOCC3=O)cc2)cc1` [Example 18, N-(4-Methylphenyl)-N′-[4-(3-oxomorpholin-4-yl)phenyl]pyrazine-2,3-dicarboxamide]: the negative-log IC50 (pIC50) is 8.12.

`C#Cc1ccc(NC(=O)c2nccnc2C(=O)Nc2ccc(N3CCOCC3=O)cc2)cc1` [Example 20, N-(4-Ethynylphenyl)-N′-[4-(3-oxomorpholin-4-yl)phenyl]pyrazine-2,3-dicarboxamide] had a negative logarithm of the IC50 (pIC50) of 8.20.

Take `O=C(Nc1ccc(Cl)cn1)c1nccnc1C(=O)Nc1ccc(-n2cccc(CNC3CC3)c2=O)cc1F` [Example 30, N-(5-Chloropyridin-2-yl)-N′-{4-[3-[(cyclopropylamino)methyl]-2-oxopyridin-1(2H)-yl]-2-fluorophenyl}pyrazine-2,3-dicarboxamide trifluoracetate, trifluoroacetate]: the pIC50 is 9.36.

In turn, `NCCOc1cc(N2CCOCC2=O)ccc1NC(=O)c1nccnc1C(=O)Nc1ccc(Cl)cn1` [Example 32, N-[2-(2-Aminoethoxy)-4-(3-oxomorpholin-4-yl)phenyl]-N′-(5-chloropyridin-2-yl)pyrazine-2,3-dicarboxamide trifluoroacetate] had a negative logarithm of the IC50 (pIC50) of 9.52.
